Reference: US20100144873A1, “TREATMENT OF MYOCARDITIS USING FTS” (RAMOT AT TEL-AVIV UNIVERSITY LTD., priority 2007, published 2010)

Columns and labels:
[1] = tested on: lymphocytes from lymph nodes of rats with EAM; assay: Ex vivo proliferation assay with FTS (XTT, 96 h) on lymphocytes from EAM rats; type: cell-based, rat
Description: FTS was provided by Concordia Pharmaceuticals, Inc. (Ft. Lauderdale, Fla.). FTS was stored in chloroform, which was evaporated under a stream of nitrogen immediately before use. The powder was dissolved in DMSO. This solution was diluted with RPMI/10% FCS to yield a 10 mM drug stock solution containing 10% DMSO. A portion of this solution was applied to the cells at a dilution of 1:100. Ex Vivo Proliferation Assay with FTS Five (5) rats with EAM were sacrificed on day fourteen (14). Lymphocytes were taken from lymph nodes, prepared as described and 1×10^5 cells/well seeded in 96 microwell plates. Lymphocytes were incubated in the presence of Myosin 2.5 μg/ml or Concavalin A in the presence of 0, 3.125, 6.25, 12.5, and 25 μM FTS. Lymphocyte proliferation was evaluated using XTT reagent after 96 h of incubation. To investigate the effect of FTS on the proliferative capacity of lymphocytes from EAM rats against myosin ex vivo, lymph nodes were excised from the EAM rodent models fourteen (14) days following myosin immunizations. Thereafter, lymphocytes were incubated in the presence of (A) myosin (2.5 μg/ml) and (B) Concavalin A (4 μg/ml) with varying concentrations of FTS. […] The proliferation rate was reduced in the presence of 50 μM FTS ex vivo by 48% (FIG. 1B). Thus, proliferation of lymphocytes against potential cardiac epitopes may be attenuated following FTS administration.

active GTP-bound Ras = assay: Ras-GTP determination by glutathione S-transferase-RBD pull-down assay in lymphocytes of treated rats; type: in vivo, Lewis rat
Description: (§1) Two groups of rats were induced to develop EAM by immunization with cardiac myosin according to two protocols. In Protocol 1 (prevention regimen), FTS or PBS (control) was administered two (2) days prior to myosin immunization at a dose of 5 mg/kg (FTS pre-treatment before immunization). Thereafter, dosing was continued for a period of fourteen (14) days with administration of FTS or PBS occurring every other day. In Protocol 2 (treatment regimen), FTS or PBS (control) was administered fourteen (14) days after porcine cardiac myosin immunization at a dose of 5 mg/kg (FTS post-EAM). Thereafter, dosing was continued for a period of seven (7) days with administration of FTS or PBS occurring every other day. Under both protocols, the Lewis rats were sacrificed at day 21 and hearts, lymph nodes and spleens were excised for histological and immunological analyses.
The lymphocytes were prepared as mentioned above. Samples containing 1.5 mg protein used for determination of levels of active GTP-bound Ras by the glutathione S-transferase-RBD pull-down assay followed by Western immunoblotting with pan-anti-Ras Ab as detailed in G. Elad-Sfadia, R. Haklai, E. Ballan et al., J. Biol. Chem. 277:37169-75 (2002).

[2] = tested on: experimental autoimmune myocarditis (EAM); assay: Histopathology, H&E: severity of myocarditis (Dallas criteria) in EAM; type: in vivo, Lewis rat; settings: FTS 5 mg/kg i.p., mean±SE, control group 1.61±0.23, p<0.05
Description: (§2) Porcine cardiac myosin (Sigma) was dissolved in PBS to a concentration of 0.4 μg/ul. Each rat was immunized by a single subcutaneous injection in both footpads on day 0 with an emulsion containing 1 mg of cardiac myosin with an equal volume of complete Freund's adjuvant containing 10.0 mg/mL of heat-killed Mycobacterium tuberculosis.
(§3) FTS was provided by Concordia Pharmaceuticals, Inc. (Ft. Lauderdale, Fla.). FTS was stored in chloroform, which was evaporated under a stream of nitrogen immediately before use. The powder was dissolved in absolute ethanol and diluted to the desired concentration in sterile PBS made basic with NaOH. Carrier solution (1000 μl) containing 1.35 mg of FTS (5 mg/kg) was injected intraperitoneally (i.p.) into each rat. Control solution was prepared at the same time, starting with PBS and absolute ethanol.
Two groups of rats were induced to develop EAM by immunization with cardiac myosin according to two protocols. […]
Hearts were removed and fixed in 10% formalin, then embedded in paraffin. […] Every fifth section was examined for the presence of myocarditis by light microscopy, and was evaluated according to previously published criteria (the Dallas criteria) describing the severity of myocarditis as follows: severe (2)>50% of the heart involved; moderate (1)=10-50% involved; and minimal (0)=<10% involved, or normal. […]

[3] = tested on: IgG anti-myosin antibodies; assay: IgG anti-myosin antibody levels in sera by ELISA; type: in vivo, Lewis rat; settings: FTS 5 mg/kg i.p., p<0.05 vs control
Description: as §2, §3
(§4) Two groups of rats were induced to develop EAM by immunization with cardiac myosin according to two protocols. In Protocol 1 (prevention regimen), FTS or PBS (control) was administered two (2) days prior to myosin immunization at a dose of 5 mg/kg (FTS pre-treatment before immunization). Thereafter, dosing was continued for a period of fourteen (14) days with administration of FTS or PBS occurring every other day. […]

[4] = tested on: lymphocytes from lymph nodes of FTS-treated Lewis rats; assay: Lymphocyte proliferation assay (XTT) on lymphocytes from FTS-treated myosin-immunized rats; type: in vivo, Lewis rat
Description: as §2, §3, §4
Lymphocyte proliferation was evaluated using XTT reagent, according to standard procedures, after 96 h of incubation. […]

[5] = tested on: Ras and its downstream signaling effectors in lymphocytes; assay: Western immunoblotting of total Ras, Erk, P-Erk, Akt, P-Akt in lymphocytes of treated rats; type: in vivo, Lewis rat
Description: as §1
Lymphocytes were obtained from lymph nodes of FTS- and PBS-treated rats. The lymphocytes were homogenized in cold homogenization buffer containing protease inhibitors. Protein concentration was determined by the Bradford assay and samples containing 100 μg protein were used for determination of total Ras, total Erk, P-Erk, total Akt and P-Akt by Western immunoblotting using, respectively: pan-anti-Ras Ab (Ab03; Santa Cruz, Calif.), anti Erk Ab (Santa Cruz, Calif.), anti P-Erk Ab (Sigma), anti Akt Ab (Cell Signaling), and anti P-Akt Ab (Cell Signaling).
Enhanced chemiluminescence (ECL) and densitometric analysis were performed as detailed in R. Haklai, M. G. Weisz, G. Elad, et al., Biochemistry 37:1306-1314 (1998).

[6] = human Phase I, doses up to 1800 mg/day; cited from earlier work
[7] = tested on: experimental autoimmune myocarditis (EAM); assay: Histopathology, Masson trichrome: scar area (collagen deposition) in EAM; type: in vivo, Lewis rat; settings: FTS 5 mg/kg i.p., vs control rats
Description: as §2, §3
Two groups of rats were induced to develop EAM by immunization with cardiac myosin according to two protocols. In Protocol 1 (prevention regimen), FTS or PBS (control) was administered two (2) days prior to myosin immunization at a dose of 5 mg/kg (FTS pre-treatment before immunization). […]
In order to evaluate the severity of scaring of the heart tissue, Masson trichrome staining was performed to assess collagen deposition in the three study groups. […] FIGS. 4B and C illustrate typical representations of the stained sections and quantitative analysis of the results.

[8] = tested on: myocardial dysfunction following myosin-induced EAM; assay: M-mode echocardiography after six weeks of FTS in EAM; type: in vivo, Lewis rat; settings: FTS 5 mg/kg from 2 days before myosin immunization, every other day for six weeks; vs PBS-treated
Description: as §2, §3
Another group of experiments was designed to study the effects of FTS on prevention of myocardial dysfunction following myosin-induced EAM. Under this regimen, FTS or PBS was given two (2) days before myosin immunization, then every other day for six (6) weeks (when compromised heart function is expected). After six (6) weeks, M-mode echocardiography was performed as described in George J, Biner S, Keren P, Barshack I, Goldberg I, Sherez J, Levitski A, Keren G, Roth A. Exp Mol. Pathol. 74(3):314-8 2003. […]

[9] = Protocol 1 FTS-treated rats vs control animals
[10] = Protocol 1 FTS-treated rats vs control

CC(C)=CCC/C(C)=C/CC/C(C)=C/CSc1ccccc1C(=O)O [FTS, S-farnesylthiosalicylic acid]
reduction of proliferation rate of Concavalin A-treated lymphocytes ([1]; Concavalin A 4 μg/ml, 50 μM FTS ex vivo): 48% | proliferation of Concavalin A-treated lymphocytes vs controls ([1]; Concavalin A 4 μg/ml, varying concentrations of FTS ex vivo): dose-dependent reduction in proliferation | reduction of lymphocyte proliferation to myosin ([1]; myosin 2.5 μg/ml, FTS 25 and 50 μM, ex vivo, vs controls, p<0.05): 79±7% | Ras-GTP level in lymphocytes (active GTP-bound Ras; [9]): downregulated | ratio of Ras-GTP to total Ras (active GTP-bound Ras; lymphocytes of Protocol 1 FTS-treated rats): did not significantly alter | severity of myocarditis (myocarditis score) ([2]; Protocol 1 (prevention)): 0.28±0.15 scale of 0-2 arbitrary units | severity of myocarditis (myocarditis score) ([2]; Protocol 2 (treatment)): 0.33±0.24 scale of 0-2 arbitrary units | IgG anti-myosin antibody levels ([3]; Protocol 1 (prevention)): significantly reduced levels of IgG anti-myosin antibody | IgG anti-myosin antibody levels ([3]; Protocol 2 (treatment)): significantly reduced IgG anti-myosin antibody levels | proliferation in response to non-specific mitogen Concavalin A ([4]; FTS-treated rats vs control animals (data not shown)): not diminished | decrease in lymphocyte proliferation in comparison with PBS ([4]; Protocol 1 (prevention): FTS 5 mg/kg i.p. from 2 days before myosin immunization, every other day for 14 days, p<0.05): ~35% | phospho-Akt level in lymphocytes [5, 10]: significant decrease | phospho-Erk level in lymphocytes [5, 10]: significant decrease | total Akt level in lymphocytes [5, 10]: not affected | total Erk level in lymphocytes [5, 10]: not affected | total Ras level in lymphocytes [5, 9]: downregulated | dose-limiting toxicities [6]: no dose-limiting toxicities | collagen deposition (scar formation) ([7]; Protocol 1 (prevention)): reduced collagen deposition | collagen deposition (scar formation) ([7]; Protocol 2 (treatment)): reduced collagen deposition | fractional shortening (systolic parameter) [8]: improved | left ventricular diastolic diameter [8]: improved
